Measured values reported in EP2050748A1, “Novel fused pyrimidines” (Bayer Schering Pharma Aktiengesellschaft, priority 2007, dated 2009).

Key:
[1] = tested on: phosphorylated Akt protein (Ser473); experiment: Cellular PI3K / Akt pathway assay (phospho-Akt ELISA); type: cell-based; details: Homo sapiens; MCF7 cells, stimulated with ß-Heregulin (20ng/ml), compound incubated 48h, phospho-Akt1 (Ser473) ELISA
Experimental: In order to study the cellular activity of the compounds according to the present invention, an Enzyme Linked Immunosorbent Assay (ELISA)-based assay has been used specific phospho-AKT. The assay is based on a Sandwich ELISA kit (PathScan™ Phospho-Akt1 (Ser473); Cell Signaling, USA; #7160).
The ELISA Kit detects endogenous levels of phosphorylated Akt protein. A phospho-Akt (Ser473) antibody (Cell Signaling, USA; #9271) has been coated onto the microwells. After incubation with cell lysates, the coated antibody captures the phosphorylated Akt protein. Following extensive washing, Akt1 monoclonal antibody (Cell Signaling, USA; #2967) is added to detect the captured phospho-Akt1 protein. HRP-linked anti-mouse antibody (HRP: horseradish peroxidase; Cell Signaling, USA; #7076) is then used to recognize the bound detection antibody. HRP substrate (= 3,3',5,5'-tetramethylbenzidine (TMB); Cell Signaling, USA; #7160) is added to develop colour. The magnitude of optical density for this developed color is proportional to the quantity of phosphorylated Akt protein.
MCF7 cells (ATCC HTB-22) are seeded into 96 well fate bottom plates at a density of 10000 cells/well. 24 hours after seeding, the cells are serum starved using low-serum medium (IMEM media including 0,1% charcoal treated FCS (FCS: fetal calf serum)). After 24 hours 1 µl each of the compound dilutions (test compounds were dissolved as 10 mM solutions in dimethylsulfoxide (DMSO) and subsequently diluted) are added into each well of the 96 well plates and incubated for 48h at 37°C in a humidified athmosphere containing 5% CO2. To stimulate Akt phosphorylation, ß-Heregulin (20ng/ml β-HRG) is added in parallel to the compounds. Wells containing unstimulated control cells (no β-Heregulin stimulation) are incubated with or without the diluted compound. Wells containing untreated control cells (no compound) are filled with medium containing 0.5% v:v DMSO and are or are not stimulated with β-Heregulin.
Cells are harvested and lysed with brief sonification in 1x x cell lysis buffer (20mM Tris (pH7.5), 150 mM NaCl, 1 mM ethylene diaminetetraacetate (EDTA), 1 mM ethylene glycolbis(2-aminoethyl)-N,N,N',N'-tetraacetic acid (EGTA), 1vol% Triton X-100, 2.5mM sodium pyrophosphate, 1 mM β-glycerolphosphate, 1 mM Na3VO4, 1 µg/ml leupeptin). The lysate is centrifuged for 10 min. at 4°C and the supernatant is transferred to a new tube. 100 µl of sample diluent (0.1vol% Tween-20, 0.1vol% sodium azide in phosphate buffered saline (PBS)) are added to a microcentrifuge tube and 100 µl of cell lysate are transferred into the tube and vortexed. 100 µl of each diluted cell lysate are added to the appropriate ELISA well, and incubated overnight at 4°C. The plates are washed 4 times with 1 x wash buffer (1 vol% tween-20, 0.33vol% thymol, in PBS). Next 100 µl of detection antibody (Akt1 (2H10) monoclonal detection antibody; Cell Signaling, USA; #2967) are added to each well and incubation continued for 1 h at 37°C. The washing procedure is repeated between each step. 100µl of secondary antibody (anti-mouse IgG HRP-linked antibody; Cell Signaling, USA; #7076) are added to each well and incubated for 30 min. at 37°C. Than, 100µl of TMB substrate (0.05% 3,3',5,5' tetramethylbenzidine, 0.1 % hydrogen peroxide, complex polypeptides in a buffered solution; Cell Signaling, USA; #7160) are added to each well and incubated for 30 min. at 25°C. Finally 100 µl of STOP solution (0.05vol% α and β unsaturated carbonyl compound) are added to each well and the plate are shaked gently. The absorbance is measured at λ=450 nm (Wallac Victor2; Perkin Elmer, USA) within 30 min. after adding the STOP solution. The analysis of the data is performed using a statistical program (Excel; Microsoft, USA). Preferred compounds show an inhibitory activity towards Akt phosphorylation below 10µM.

OvCAR3 cells = experiment: Cellular proliferation / Cytotoxicity assay (Alamar Blue); type: cell-based; details: Homo sapiens, OVCAR-3, 48h incubation, Alamar Blue (Resazurin) cell viability, read-out: Anti-proliferative / Cytotoxic activity (OvCAR3 cells)
Experimental: The anti-proliferative activity of the compounds as described herein, is evaluated using the OvCAR3, HCT116 and A549 cell lines and the Alamar Blue (Resazurin) cell viability assay (O'Brien et al. Eur J Biochem 267, 5421-5426, 2000). Resazurin is reduced to the fluorescent resorufin by cellular dehydrogenase activity, correlating with viable, proliferating cells. Test compounds are dissolved as 10 mM solutions in DMSO and subsequently diluted. Cells like HCT116 or A549 cells were seeded into 96 well flat bottom plates at a density of 10000 cells/well (OvCAR3 cells), 1000 cells/well (HCT116 cells) or 2000 cells/well (A549 cells) in a volume of 200 µl/well. 24 hours after seeding, 1 µl each of the compound dilutions are added into each well of the 96 well plates. Each compound dilution is tested as at least as duplicates. Wells containing untreated control cells were filled with 200 µl DMEM (Dulbecco's Modified Eagle Medium) containing 0.5vol% v:v DMSO. The cells are then incubated with the substances for 48h at 37°C in a humidified atmosphere containing 5vol% CO2. To determine the viability of the cells, 20 µl of a Resazurin solution (90mg / l) are added. After 4h incubation at 37°C, the fluorescence is measured by extinction at ? = 544 nm and an emission of ? = 590 nm (Wallac Victor2; Perkin Elmer, USA). For the calculation of the cell viability, the emission value from untreated cells is set as 100% viability and the fluorescence intensity of treated cells are set in relation to the values of untreated cells. Viabilities are expressed as % values. The corresponding IC50 values of the compounds for cytotoxic activity are determined from the concentration-effect curves by means of non-linear regression. The analysis of the data is performed using a biostatistical program (GraphPad Prism, USA). Representative IC50 values for anti-proliferative / cytotoxic potency determined in the aforementioned assay follow from the following table, in which the numbers of the compound correspond to the numbers of the examples.

Row | SMILES | IC50 [1] | IC50 (OvCAR3 cells)
1 | c1ccc(-c2cn3ccnc3nc2-c2ccc(CN3CCC(c4n[nH]c(-c5ncccn5)n4)CC3)cc2)cc1 [Example 18, 6-phenyl-7-(4-{[4-(5-pyrimidin-2-yl-1,2,4-triazol-3-yl)piperidin-1-yl]methyl}phenyl)imidazo[1,2-a]pyrimidine] | 1000 to 10000 nM | > 1000 nM
2 | Cc1cnc2nc(-c3ccc(CN4CCC(c5n[nH]c(-c6ccccn6)n5)CC4)cc3)c(-c3ccccc3)cn12 [Example 14, 3-methyl-6-phenyl-7-(4-{[4-(5-pyridin-2-yl-1,2,4-triazol-3-yl)piperidin-1-yl]methyl}phenyl)imidazo[1,2-a]pyrimidine] | < 1000 nM | < 1000 nM
3 | c1ccc(-c2cn3nc(C4CCC4)nc3nc2-c2ccc(CN3CCC(c4n[nH]c(-c5ccccn5)n4)CC3)cc2)cc1 [Example 7, 2-cyclobutyl-6-phenyl-5-(4-{[4-(5-pyridin-2-yl-1,2,4-triazol-3-yl)piperidin-1-yl]methyl}phenyl)[1,2,4]triazolo[1,5-a]pyrimidine] | < 1000 nM | < 1000 nM
4 | CCc1cnc2nc(-c3ccc(CN4CCC(c5n[nH]c(-c6ccccn6)n5)CC4)cc3)c(-c3ccccc3)cn12 [Example 22, 3-ethyl-6-phenyl-7-(4-{[4-(5-pyridin-2-yl-1,2,4-triazol-3-yl)piperidin-1-yl]methyl}phenyl)imidazo[1,2-a]pyrimidine] | < 1000 nM | < 1000 nM
5 | c1ccc(-c2cn3ccnc3nc2-c2ccc(CN3CCC(c4n[nH]c(-c5ccncc5)n4)CC3)cc2)cc1 [Example 6, 6-phenyl-7-(4-{[4-(5-pyridin-4-yl-1,2,4-triazol-3-yl)piperidin-1-yl]methyl}phenyl)imidazo[1,2-a]pyrimidine] | < 1000 nM | > 1000 nM
6 | c1ccc(-c2cn3ccnc3nc2-c2ccc(CN3CCC(c4n[nH]c(-c5cnccn5)n4)CC3)cc2)cc1 [Example 21, 6-phenyl-7-(4-{[4-(5-pyrazin-2-yl-1,2,4-triazol-3-yl)piperidin-1-yl]methyl}phenyl)imidazo[1,2-a]pyrimidine] | < 1000 nM | > 1000 nM
7 | c1ccc(-c2cn3ccnc3nc2-c2ccc(CN3CCC(n4cnc(-c5ccccn5)c4)CC3)cc2)cc1 [Example 20, 6-phenyl-7-(4-{[4-(4-pyridin-2-yl-imidazol-1-yl)piperidin-1-yl]methyl}phenyl)imidazo[1,2-a]pyrimidine] | < 1000 nM | > 1000 nM

The next lines start with results.

Row | IC50 [1] | SMILES | IC50 (OvCAR3 cells)
8 | < 1000 nM | c1ccc(-c2cn3nc(C4CC4)nc3nc2-c2ccc(CN3CCC(c4n[nH]c(-c5ccccn5)n4)CC3)cc2)cc1 [Example 4, 2-cyclopropyl-6-phenyl-5-(4-{[4-(5-pyridin-2-yl-1,2,4-triazol-3-yl)piperidin-1-yl]methyl}phenyl)[1,2,4]triazolo[1,5-a]pyrimidine] | < 1000 nM
9 | < 1000 nM | Fc1cnc2nc(-c3ccc(CN4CCC(c5n[nH]c(-c6ccccn6)n5)CC4)cc3)c(-c3ccccc3)cn12 [Example 9, 3-fluoro-6-phenyl-7-(4-{[4-(5-pyridin-2-yl-1H-1,2,4-triazol-3-yl)piperidin-1-yl]methyl}phenyl)imidazo[1,2-a]pyrimidine] | < 1000 nM
10 | < 1000 nM | C#Cc1cnc2nc(-c3ccc(CN4CCC(c5n[nH]c(-c6ccccn6)n5)CC4)cc3)c(-c3ccccc3)cn12 [Example 13, 3-ethynyl-6-phenyl-7-(4-{[4-(5-pyridin-2-yl-1,2,4-triazol-3-yl)piperidin-1-yl]methyl}phenyl)imidazo[1,2-a]pyrimidine] | < 1000 nM
11 | < 1000 nM | C=Cc1cnc2nc(-c3ccc(CN4CCC(c5n[nH]c(-c6ccccn6)n5)CC4)cc3)c(-c3ccccc3)cn12 [Example 15, 6-phenyl-7-(4-{[4-(5-pyridin-2-yl-1,2,4-triazol-3-yl)piperidin-1-yl]methyl}phenyl)-3-vinylimidazo[1,2-a]pyrimidine] | < 1000 nM
12 | 1000 to 10000 nM | CNc1c(-c2ccccc2)c(-c2ccc(CN3CCC(c4n[nH]c(-c5ccccn5)n4)CC3)cc2)nc2nccn12 [Example 10, N-methyl-6-phenyl-7-(4-{[4-(5-pyridin-2-yl-1,2,4-triazol-3-yl)piperidin-1-yl]methyl}phenyl)imidazo[1,2-a]pyrimidin-5-amine] | > 1000 nM
13 | < 1000 nM | Cc1nc2nc(-c3ccc(CN4CCC(c5n[nH]c(-c6ccccn6)n5)CC4)cc3)c(-c3ccccc3)cn2n1 [Example 3, 2-methyl-6-phenyl-5-(4-{[4-(5-pyridin-2-yl-1,2,4-triazol-3-yl)piperidin-1-yl]methyl}phenyl)[1,2,4]triazolo[1,5-a]pyrimidine] | < 1000 nM
14 | < 1000 nM | c1ccc(-c2cn3ncnc3nc2-c2ccc(CN3CCC(c4n[nH]c(-c5ccccn5)n4)CC3)cc2)cc1 [Example 2, 6-phenyl-5-(4-([4-(5-pyridin-2-yl-1,2,4-triazol-3-yl)piperidin-1-yl]methyl}phenyl)[1,2,4]triazolo[1,5-a]pyrimidine] | > 1000 nM
15 | < 1000 nM | Clc1cnc2nc(-c3ccc(CN4CCC(c5n[nH]c(-c6ccccn6)n5)CC4)cc3)c(-c3ccccc3)cn12 [Example 12, 3-chloro-6-phenyl-7-(4-{[4-(5-pyridin-2-yl-1,2,4-triazol-3-yl)piperidin-1-yl]methyl}phenyl)imidazo[1,2-a]pyrimidine] | < 1000 nM
16 | < 1000 nM | c1ccc(-c2cn3nccc3nc2-c2ccc(CN3CCC(c4n[nH]c(-c5ccccn5)n4)CC3)cc2)cc1 [Example 19, 6-phenyl-5-(4-{[4-(5-pyridin-2-yl-1,2,4-triazol-3-yl)piperidin-1-yl]methyl}phenyl)pyrazolo[1,5-a]pyrimidine] | < 1000 nM
17 | < 1000 nM | Brc1cnc2nc(-c3ccc(CN4CCC(c5n[nH]c(-c6ccccn6)n5)CC4)cc3)c(-c3ccccc3)cn12 [Example 11, 3-bromo-6-phenyl-7-(4-{[4-(5-pyridin-2-yl-1,2,4-triazol-3-yl)piperidin-1-yl]methyl}phenyl)imidazo[1,2-a]pyrimidine] | < 1000 nM
